Results as given in patent US10921312B2 (priority 2014, dated 2021).
“Also recorded” adds a separate entry of the source.

Legend:
[1] = tested on: iCell® neurons (human induced pluripotent stem cell-derived neurons); format: cell-based
[2] = tested on: Neuro2A cells; format: cell-based

GT1b
increase of sensitivity to neurotoxin polypeptide [1]: ~7 fold
increase in sensitivity to neurotoxin [2]: did not exhibit a comparable increase in sensitivity; also recorded: no increase in sensitivity
